# PMC7026418, “The kinase polypharmacology landscape of clinical PARP inhibitors” (Scientific Reports, 2020)
# Like-named read-outs stand apart in the source and are kept apart here.
# Legend:
# Assay in all cases: biochemical
# Parameters in all cases: DiscoveRx KINOMEscan active site-directed competition binding; percent of control kinase bound to immobilised ligand
# [1] = target: T1, CDK11 (Homo sapiens, UniProt Q9BWU1)
# T1 construct: gene CDK19
# [2] = target: CDKL1 (Homo sapiens, UniProt Q00532)
# CDKL1, sequence (Q00532 whole entry): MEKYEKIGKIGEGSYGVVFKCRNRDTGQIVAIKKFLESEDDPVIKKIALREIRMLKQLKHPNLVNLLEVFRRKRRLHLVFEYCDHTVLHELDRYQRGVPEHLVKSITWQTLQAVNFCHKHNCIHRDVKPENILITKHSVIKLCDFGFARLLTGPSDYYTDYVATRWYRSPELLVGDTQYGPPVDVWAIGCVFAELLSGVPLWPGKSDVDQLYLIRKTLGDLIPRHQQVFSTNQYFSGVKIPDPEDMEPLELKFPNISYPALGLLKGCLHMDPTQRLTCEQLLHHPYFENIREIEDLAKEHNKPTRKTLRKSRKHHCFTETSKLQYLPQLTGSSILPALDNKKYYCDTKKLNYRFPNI
# [3] = target: CDKL3 (Homo sapiens, UniProt Q8IVW4)
# CDKL3, sequence (Q8IVW4 whole entry): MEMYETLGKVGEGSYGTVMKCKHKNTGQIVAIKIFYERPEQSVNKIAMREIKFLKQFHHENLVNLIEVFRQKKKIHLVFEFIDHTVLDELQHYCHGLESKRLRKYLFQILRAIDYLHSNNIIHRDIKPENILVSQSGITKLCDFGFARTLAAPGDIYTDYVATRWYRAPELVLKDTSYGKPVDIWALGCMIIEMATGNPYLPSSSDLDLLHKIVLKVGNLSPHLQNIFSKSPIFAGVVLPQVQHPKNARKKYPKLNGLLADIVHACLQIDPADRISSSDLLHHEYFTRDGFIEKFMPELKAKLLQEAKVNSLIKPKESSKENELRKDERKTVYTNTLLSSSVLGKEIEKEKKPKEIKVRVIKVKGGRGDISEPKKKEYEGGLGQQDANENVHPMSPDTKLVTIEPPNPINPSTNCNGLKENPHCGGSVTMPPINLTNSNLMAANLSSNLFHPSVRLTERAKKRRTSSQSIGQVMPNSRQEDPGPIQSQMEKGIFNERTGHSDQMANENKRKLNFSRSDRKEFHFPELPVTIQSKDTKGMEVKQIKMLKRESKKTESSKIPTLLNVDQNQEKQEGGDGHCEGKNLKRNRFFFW
# [4] = target: IRAK1 (Homo sapiens, UniProt P51617)
# IRAK1, sequence (P51617 whole entry): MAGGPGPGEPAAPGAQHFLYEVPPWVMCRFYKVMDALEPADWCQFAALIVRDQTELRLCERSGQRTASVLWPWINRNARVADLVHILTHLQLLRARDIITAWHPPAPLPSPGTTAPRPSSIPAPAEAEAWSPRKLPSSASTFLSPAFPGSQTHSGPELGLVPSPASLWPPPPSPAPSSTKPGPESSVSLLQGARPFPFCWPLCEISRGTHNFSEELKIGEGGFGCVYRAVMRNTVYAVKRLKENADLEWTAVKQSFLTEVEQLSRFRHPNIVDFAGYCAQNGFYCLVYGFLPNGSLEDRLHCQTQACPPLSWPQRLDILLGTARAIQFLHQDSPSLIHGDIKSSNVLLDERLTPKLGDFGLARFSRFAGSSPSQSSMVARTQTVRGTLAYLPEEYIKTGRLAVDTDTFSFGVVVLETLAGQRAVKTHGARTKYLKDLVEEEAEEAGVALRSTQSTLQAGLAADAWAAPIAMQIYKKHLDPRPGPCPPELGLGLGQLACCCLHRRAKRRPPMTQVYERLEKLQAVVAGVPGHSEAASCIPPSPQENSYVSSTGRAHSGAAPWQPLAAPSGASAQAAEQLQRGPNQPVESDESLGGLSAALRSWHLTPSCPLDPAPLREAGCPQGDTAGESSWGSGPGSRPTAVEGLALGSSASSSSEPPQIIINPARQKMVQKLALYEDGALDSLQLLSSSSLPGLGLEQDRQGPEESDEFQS
# [5] = target: T2, LOK (Homo sapiens, UniProt O94804)
# T2 construct: gene STK10
# T2 sequence (O94804 whole entry): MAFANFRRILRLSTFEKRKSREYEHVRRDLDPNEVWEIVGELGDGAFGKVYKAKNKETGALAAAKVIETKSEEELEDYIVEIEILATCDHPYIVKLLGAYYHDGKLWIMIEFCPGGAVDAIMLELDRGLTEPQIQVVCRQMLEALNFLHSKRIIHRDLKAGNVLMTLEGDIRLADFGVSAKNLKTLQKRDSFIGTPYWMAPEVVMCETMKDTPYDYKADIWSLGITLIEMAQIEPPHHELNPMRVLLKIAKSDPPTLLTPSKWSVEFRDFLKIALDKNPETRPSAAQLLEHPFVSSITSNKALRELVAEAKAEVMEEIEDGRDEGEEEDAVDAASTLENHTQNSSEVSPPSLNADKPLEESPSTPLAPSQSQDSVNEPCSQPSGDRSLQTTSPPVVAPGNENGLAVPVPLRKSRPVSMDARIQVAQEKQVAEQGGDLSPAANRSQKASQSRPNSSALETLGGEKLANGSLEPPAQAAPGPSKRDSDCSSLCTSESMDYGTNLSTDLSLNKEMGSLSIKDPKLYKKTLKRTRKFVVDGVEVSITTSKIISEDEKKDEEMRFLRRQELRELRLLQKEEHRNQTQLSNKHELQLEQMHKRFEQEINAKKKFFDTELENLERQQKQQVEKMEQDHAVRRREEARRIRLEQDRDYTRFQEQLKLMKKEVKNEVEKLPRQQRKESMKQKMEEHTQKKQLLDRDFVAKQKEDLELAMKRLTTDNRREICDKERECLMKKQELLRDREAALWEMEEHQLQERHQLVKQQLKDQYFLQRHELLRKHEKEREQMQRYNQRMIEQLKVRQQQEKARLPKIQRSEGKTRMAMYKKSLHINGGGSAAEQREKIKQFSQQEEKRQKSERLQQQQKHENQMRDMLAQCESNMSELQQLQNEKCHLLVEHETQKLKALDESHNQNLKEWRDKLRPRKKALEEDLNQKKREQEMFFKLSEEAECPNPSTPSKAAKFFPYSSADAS
# [6] = target: T3, NEK11 (Homo sapiens, UniProt Q8NG66)
# T3 sequence (Q8NG66 1-645): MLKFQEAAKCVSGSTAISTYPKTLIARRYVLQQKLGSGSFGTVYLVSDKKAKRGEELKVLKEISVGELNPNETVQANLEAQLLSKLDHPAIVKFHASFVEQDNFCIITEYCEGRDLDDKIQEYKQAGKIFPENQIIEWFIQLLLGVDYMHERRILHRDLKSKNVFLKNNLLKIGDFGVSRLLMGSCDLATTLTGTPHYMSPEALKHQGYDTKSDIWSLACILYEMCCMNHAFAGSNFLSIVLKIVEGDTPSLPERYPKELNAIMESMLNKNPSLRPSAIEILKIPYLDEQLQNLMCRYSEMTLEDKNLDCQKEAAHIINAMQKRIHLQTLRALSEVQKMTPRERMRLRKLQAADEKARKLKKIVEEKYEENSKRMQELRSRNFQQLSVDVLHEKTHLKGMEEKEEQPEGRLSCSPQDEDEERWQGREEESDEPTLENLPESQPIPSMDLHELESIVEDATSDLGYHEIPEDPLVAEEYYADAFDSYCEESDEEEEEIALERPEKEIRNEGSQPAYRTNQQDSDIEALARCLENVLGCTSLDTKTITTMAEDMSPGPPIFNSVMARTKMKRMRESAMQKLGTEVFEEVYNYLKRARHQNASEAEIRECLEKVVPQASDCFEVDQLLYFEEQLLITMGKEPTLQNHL
# [7] = target: T4, PDPK1 (Homo sapiens, UniProt O15530)
# T4 sequence (O15530 1-556): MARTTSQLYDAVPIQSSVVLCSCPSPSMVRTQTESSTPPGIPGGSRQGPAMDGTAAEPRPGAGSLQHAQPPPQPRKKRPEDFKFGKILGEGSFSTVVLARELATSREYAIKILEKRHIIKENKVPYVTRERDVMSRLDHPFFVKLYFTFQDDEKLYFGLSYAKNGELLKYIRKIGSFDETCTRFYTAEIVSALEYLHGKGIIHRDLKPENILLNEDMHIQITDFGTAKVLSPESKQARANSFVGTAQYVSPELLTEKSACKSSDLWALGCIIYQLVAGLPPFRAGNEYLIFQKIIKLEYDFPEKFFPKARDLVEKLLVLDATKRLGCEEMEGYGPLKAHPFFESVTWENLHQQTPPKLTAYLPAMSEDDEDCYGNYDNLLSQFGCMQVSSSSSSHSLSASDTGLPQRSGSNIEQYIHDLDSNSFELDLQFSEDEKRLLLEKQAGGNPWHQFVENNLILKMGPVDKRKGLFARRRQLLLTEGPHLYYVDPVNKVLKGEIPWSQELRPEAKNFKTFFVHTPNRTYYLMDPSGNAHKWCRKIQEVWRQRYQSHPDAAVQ
# [8] = target: PIK3CA(M1043I) (Homo sapiens, UniProt P42336, M1043I)
# PIK3CA(M1043I), sequence (P42336 whole entry M1043I): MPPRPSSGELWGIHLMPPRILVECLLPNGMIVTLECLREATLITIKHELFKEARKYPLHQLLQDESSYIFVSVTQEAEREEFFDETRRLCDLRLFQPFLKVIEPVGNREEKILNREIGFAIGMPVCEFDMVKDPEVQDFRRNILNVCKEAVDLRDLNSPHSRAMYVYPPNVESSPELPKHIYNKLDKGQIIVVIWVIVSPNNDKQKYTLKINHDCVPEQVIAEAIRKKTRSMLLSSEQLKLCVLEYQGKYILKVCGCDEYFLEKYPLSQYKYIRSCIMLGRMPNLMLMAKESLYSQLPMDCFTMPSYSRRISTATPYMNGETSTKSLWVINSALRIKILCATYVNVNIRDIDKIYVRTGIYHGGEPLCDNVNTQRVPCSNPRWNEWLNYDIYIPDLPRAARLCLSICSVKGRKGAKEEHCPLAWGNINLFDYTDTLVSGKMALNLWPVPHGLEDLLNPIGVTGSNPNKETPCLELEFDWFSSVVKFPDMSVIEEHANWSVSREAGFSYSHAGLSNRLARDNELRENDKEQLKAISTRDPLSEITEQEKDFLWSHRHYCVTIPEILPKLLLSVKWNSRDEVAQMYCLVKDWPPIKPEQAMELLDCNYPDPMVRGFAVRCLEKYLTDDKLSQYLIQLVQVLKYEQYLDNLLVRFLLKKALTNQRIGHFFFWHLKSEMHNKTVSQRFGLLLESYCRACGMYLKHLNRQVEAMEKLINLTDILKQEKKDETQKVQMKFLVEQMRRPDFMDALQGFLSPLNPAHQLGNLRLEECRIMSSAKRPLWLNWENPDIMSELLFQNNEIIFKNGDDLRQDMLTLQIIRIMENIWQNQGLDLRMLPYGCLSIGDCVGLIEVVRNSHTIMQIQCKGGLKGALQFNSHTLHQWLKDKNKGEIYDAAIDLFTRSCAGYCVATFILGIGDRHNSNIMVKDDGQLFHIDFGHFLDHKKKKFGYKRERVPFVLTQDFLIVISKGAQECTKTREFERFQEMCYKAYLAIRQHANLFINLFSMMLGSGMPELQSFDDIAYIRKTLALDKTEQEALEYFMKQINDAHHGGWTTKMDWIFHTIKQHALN
# [9] = target: T5, PRKCE (Homo sapiens, UniProt Q02156)
# T5 sequence (Q02156 1-737): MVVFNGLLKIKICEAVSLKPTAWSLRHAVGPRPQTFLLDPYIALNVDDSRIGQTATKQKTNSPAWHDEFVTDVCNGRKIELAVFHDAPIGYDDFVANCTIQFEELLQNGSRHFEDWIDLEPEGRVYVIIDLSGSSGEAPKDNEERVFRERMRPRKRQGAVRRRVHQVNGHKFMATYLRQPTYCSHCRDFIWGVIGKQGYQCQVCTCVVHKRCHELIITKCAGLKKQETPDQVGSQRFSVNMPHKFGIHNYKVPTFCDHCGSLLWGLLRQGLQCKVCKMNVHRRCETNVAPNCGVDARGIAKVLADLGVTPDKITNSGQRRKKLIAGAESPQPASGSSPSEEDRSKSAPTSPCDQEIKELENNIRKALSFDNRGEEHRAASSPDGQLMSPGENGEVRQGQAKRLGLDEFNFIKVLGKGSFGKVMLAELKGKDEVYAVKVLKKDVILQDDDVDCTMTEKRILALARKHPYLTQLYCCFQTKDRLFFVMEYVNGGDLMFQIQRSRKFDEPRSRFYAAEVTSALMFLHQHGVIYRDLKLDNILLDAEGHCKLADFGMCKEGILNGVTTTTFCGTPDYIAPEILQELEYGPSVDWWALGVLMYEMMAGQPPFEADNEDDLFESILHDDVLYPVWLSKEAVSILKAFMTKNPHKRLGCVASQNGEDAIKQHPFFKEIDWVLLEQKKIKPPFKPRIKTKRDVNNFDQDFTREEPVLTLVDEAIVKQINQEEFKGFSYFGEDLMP
# [10] = target: STK39 (Homo sapiens, UniProt Q9UEW8)
# [11] = read-out: Talazoparib (BMN 673) / %Ctrl @ 10000nM
# [12] = read-out: Olaparib / %Ctrl @ 10000nM
# [13] = read-out: Niraparib (MK-4827) / %Ctrl @ 10000nM
# [14] = read-out: Rucaparib / %Ctrl @ 10000nM, binding competition, % of control
# T1 sequence (Q9BWU1 whole entry): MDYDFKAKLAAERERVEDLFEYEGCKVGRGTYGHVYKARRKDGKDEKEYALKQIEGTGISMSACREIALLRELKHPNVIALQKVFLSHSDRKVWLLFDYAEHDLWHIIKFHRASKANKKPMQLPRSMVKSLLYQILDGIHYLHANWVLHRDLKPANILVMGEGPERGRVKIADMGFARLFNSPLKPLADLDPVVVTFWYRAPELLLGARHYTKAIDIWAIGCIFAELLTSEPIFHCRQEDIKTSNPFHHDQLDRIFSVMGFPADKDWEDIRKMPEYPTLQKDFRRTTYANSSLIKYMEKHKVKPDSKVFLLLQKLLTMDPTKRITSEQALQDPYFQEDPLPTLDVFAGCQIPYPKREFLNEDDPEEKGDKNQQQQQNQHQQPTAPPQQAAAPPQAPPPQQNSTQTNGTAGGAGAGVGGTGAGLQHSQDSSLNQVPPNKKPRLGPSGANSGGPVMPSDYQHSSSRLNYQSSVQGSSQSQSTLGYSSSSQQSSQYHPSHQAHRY
structure (smiles),measurement,setting,value
Cn1ncnc1[C@H]1c2n[nH]c(=O)c3cc(F)cc(c23)N[C@@H]1c1ccc(F)cc1 [Talazoparib],percent of control binding at 10 µM,[1]; [11],93%
same,percent of control binding at 10 µM,[2]; [11],49%
same,percent of control binding at 10 µM,[3]; [11],97%
same,percent of control binding at 10 µM,[4]; [11],88%
same,percent of control binding at 10 µM,[5]; [11],100%
same,percent of control binding at 10 µM,[6]; [11],100%
same,percent of control binding at 10 µM,[7]; [11],85%
same,percent of control binding at 10 µM,[8]; [11],94%
same,percent of control binding at 10 µM,[9]; [11],93%
same,percent of control binding at 10 µM,[10]; [11],100%
O=C(c1cc(Cc2n[nH]c(=O)c3ccccc23)ccc1F)N1CCN(C(=O)C2CC2)CC1 [Olaparib],percent of control binding at 10 µM,[1]; [12],85%
same,percent of control binding at 10 µM,[2]; [12],99%
same,percent of control binding at 10 µM,[3]; [12],100%
same,percent of control binding at 10 µM,[4]; [12],82%
same,percent of control binding at 10 µM,[5]; [12],96%
same,percent of control binding at 10 µM,[6]; [12],82%
same,percent of control binding at 10 µM,[7]; [12],100%
same,percent of control binding at 10 µM,[8]; [12],91%
same,percent of control binding at 10 µM,[9]; [12],93%
same,percent of control binding at 10 µM,[10]; [12],92%
NC(=O)c1cccc2cn(-c3ccc([C@@H]4CCCNC4)cc3)nc12 [Niraparib],percent of control binding at 10 µM,[1]; [13],93%
same,percent of control binding at 10 µM,[2]; [13],94%
same,percent of control binding at 10 µM,[3]; [13],64%
same,percent of control binding at 10 µM,[4]; [13],18%
same,percent of control binding at 10 µM,[5]; [13],86%
same,percent of control binding at 10 µM,[6]; [13],99%
same,percent of control binding at 10 µM,[7]; [13],80%
same,percent of control binding at 10 µM,[8]; [13],90%
same,percent of control binding at 10 µM,[9]; [13],100%
same,percent of control binding at 10 µM,[10]; [13],70%
CNCc1ccc(-c2[nH]c3cc(F)cc4c3c2CCNC4=O)cc1 [Rucaparib],percent of control binding at 10 µM,[1]; [14],94%
same,percent of control binding at 10 µM,[2]; [14],84%
same,percent of control binding at 10 µM,[3]; [14],100%
same,percent of control binding at 10 µM,[4]; [14],19%
same,percent of control binding at 10 µM,[5]; [14],100%
same,percent of control binding at 10 µM,[6]; [14],91%
same,percent of control binding at 10 µM,[7]; [14],97%
same,percent of control binding at 10 µM,[8]; [14],77%
same,percent of control binding at 10 µM,[9]; [14],74%
same,percent of control binding at 10 µM,[10]; [14],73%
